Here are results for 31 compounds from ChEMBL document CHEMBL1134823, “Human beta3 adrenergic receptor agonists containing cyanoguanidine and nitroethylenediamine moieties” (Bioorg Med Chem Lett, 2001).

For experiment [1], the target named is T1, Beta-3 adrenergic receptor (Homo sapiens, UniProt P13945). In words: In vitro maximum activation of adenylyl cyclase compared to isoproterenol. The format is functional.
Target sequence in this assay (P13945 whole entry, looked up): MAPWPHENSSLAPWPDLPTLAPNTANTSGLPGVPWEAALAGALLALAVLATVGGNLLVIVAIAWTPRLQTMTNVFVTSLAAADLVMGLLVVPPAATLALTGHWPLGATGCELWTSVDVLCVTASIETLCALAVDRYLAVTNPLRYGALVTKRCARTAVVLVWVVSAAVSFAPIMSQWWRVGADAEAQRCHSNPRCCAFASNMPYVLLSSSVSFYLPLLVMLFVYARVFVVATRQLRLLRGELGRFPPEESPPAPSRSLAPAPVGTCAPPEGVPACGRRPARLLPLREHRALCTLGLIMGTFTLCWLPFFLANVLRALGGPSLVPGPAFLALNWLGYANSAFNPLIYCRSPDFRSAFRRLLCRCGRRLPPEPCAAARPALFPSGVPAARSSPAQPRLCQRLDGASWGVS
Experiment [2] deals with T2, Beta-1 adrenergic receptor (Homo sapiens, UniProt P08588). As to the kind of experiment: Binding affinity for human Beta-1 adrenergic receptor using [125I]iodocyanopindolol as radioligand in CHO cells. The format is cell-based.
Target sequence in this assay (P08588 whole entry): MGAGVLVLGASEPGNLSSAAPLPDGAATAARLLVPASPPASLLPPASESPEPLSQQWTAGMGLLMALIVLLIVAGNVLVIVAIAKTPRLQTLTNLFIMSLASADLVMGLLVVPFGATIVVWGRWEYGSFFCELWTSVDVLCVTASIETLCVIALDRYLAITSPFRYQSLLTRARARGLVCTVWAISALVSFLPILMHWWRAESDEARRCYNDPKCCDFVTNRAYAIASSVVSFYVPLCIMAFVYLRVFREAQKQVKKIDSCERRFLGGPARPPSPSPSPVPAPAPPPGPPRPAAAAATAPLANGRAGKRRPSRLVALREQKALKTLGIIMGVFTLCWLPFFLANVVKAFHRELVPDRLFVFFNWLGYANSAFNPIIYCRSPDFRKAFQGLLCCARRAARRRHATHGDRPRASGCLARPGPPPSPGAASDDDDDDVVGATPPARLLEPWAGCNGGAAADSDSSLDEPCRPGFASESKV
Experiment [3] deals with T3, Beta-2 adrenergic receptor (Homo sapiens, UniProt P07550). In words: Binding affinity to the human beta-2 adrenergic receptor assayed using [125I]iodocyanopindolol as radioligand in CHO cells. Type of experiment: cell-based.
Target sequence in this assay (P07550 whole entry): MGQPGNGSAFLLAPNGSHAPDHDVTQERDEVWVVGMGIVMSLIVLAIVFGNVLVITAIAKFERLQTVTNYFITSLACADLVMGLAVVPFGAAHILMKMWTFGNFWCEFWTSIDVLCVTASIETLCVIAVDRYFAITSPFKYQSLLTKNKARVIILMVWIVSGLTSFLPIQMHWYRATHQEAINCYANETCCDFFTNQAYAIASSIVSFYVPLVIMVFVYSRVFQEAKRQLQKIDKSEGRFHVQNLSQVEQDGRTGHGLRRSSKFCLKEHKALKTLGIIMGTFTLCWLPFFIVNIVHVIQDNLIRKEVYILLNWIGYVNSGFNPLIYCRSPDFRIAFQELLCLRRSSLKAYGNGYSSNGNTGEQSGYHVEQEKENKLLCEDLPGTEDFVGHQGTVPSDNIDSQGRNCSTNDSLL
In experiment [4] the target is T1, Beta-3 adrenergic receptor. In words: In vitro efficacy at human beta-3 adrenergic receptor.
Target sequence in this assay (P13945 whole entry): as the sequence (P13945 whole entry, looked up) above
Experiment [5] concerns the target T3, Beta-2 adrenergic receptor. In words: (§1) Percent of maximal stimulation was determined as adenylate cyclase activation using isoproterenol as standard at a concentration of 10000 nM. The format is functional.
Target sequence in this assay (P07550 whole entry, looked up): as the sequence (P07550 whole entry) above
The target in experiment [6] is T2, Beta-1 adrenergic receptor. The description is as §1. Type of experiment: functional.
Target sequence in this assay (P08588 whole entry, looked up): as the sequence (P08588 whole entry) above
Experiment [7] concerns the target T1, Beta-3 adrenergic receptor. In words: Percent of maximal stimulation was determined as adenylate cyclase activation using isoproterenol as standard at a concentration of 1000 nM. Type of experiment: functional.
Target sequence in this assay (P13945 whole entry, looked up): as the sequence (P13945 whole entry, looked up) above
The target in experiment [8] is T2, Beta-1 adrenergic receptor. In words: Percent of maximal stimulation was determined as adenylate cyclase activation using isoproterenol as standard. Type of experiment: functional.
Target sequence in this assay (P08588 whole entry, looked up): as the sequence (P08588 whole entry) above
Experiment [9] deals with T3, Beta-2 adrenergic receptor. As to the kind of experiment: Percent of maximal stimulation was determined as adenylate cyclase activation using isoproterenol as standard at a concentration of 10000 nM.
Target sequence in this assay (P07550 whole entry, looked up): as the sequence (P07550 whole entry) above
For experiment [10], the target named is T2, Beta-1 adrenergic receptor. In words: Binding affinity towards human Beta-1 adrenergic receptor.
Target sequence in this assay (P08588 whole entry): as the sequence (P08588 whole entry) above

As usually defined, the IC50 is the concentration at which inhibition is half-maximal. Higher therefore signals weaker potency. What is called EC50 is the midpoint of the concentration-response curve. Lower therefore signals an effect from little substance. In turn, `O=[N+]([O-])/C=C(\Nc1ccc(CCNC[C@H](O)c2cccnc2)cc1)Nc1cccc(F)c1` showed an Activation in experiment [1] of 79%. Also, the IC50 in experiment [2] is 3000 nM; in experiment [3], 2400 nM. This compound also showed an EC50 in experiment [4] of 300 nM.
Consider `O=[N+]([O-])/C=C(\Nc1ccc(CCNC[C@H](O)c2cccnc2)cc1)Nc1cccc2ccccc12`, for which the Activation in [1] was 79%. Moreover, the IC50 in [2] is 1800 nM; in [3] it was 370 nM. A half-maximal effect in [4] (EC50) was put at 140 nM.
In turn, `N#CN/C(=N\c1cccc(I)c1)Nc1ccc(CCNC[C@H](O)c2cccnc2)cc1` yielded an Activation in [1] of 51%.
In experiment [1], `N#CN/C(=N\c1ccc(I)cc1)Nc1ccc(CCNC[C@H](O)c2cccnc2)cc1` had an Activation of 38%. Also, the IC50 is 730 nM in experiment [2] and 170 nM in experiment [3]. The same compound showed a concentration giving a half-maximal response (EC50) in experiment [4] of 100 nM.
Consider `N#CN/C(=N\c1cc(Cl)cc(Cl)c1)Nc1ccc(CCNC[C@H](O)c2cccnc2)cc1`, for which the Activation in experiment [1] worked out at 72%. For the same compound, the concentration for half-maximal inhibition (IC50) came to 290 nM in [2] and 140 nM in [3]. Moreover, the concentration for a half-maximal effect (EC50) in [4] worked out at 89 nM.
For `CCCCCCCCc1csc(N2CCc3cc(N/C(=N/c4ccc(CCNC[C@H](O)c5cccnc5)cc4)NC#N)ccc32)n1`, the Activation in experiment [1] is 39%.
Consider `N#CN=C(Nc1ccc(CCNC[C@H](O)c2cccnc2)cc1)Nc1cccc2ccccc12`, for which the IC50 in experiment [2] was 480 nM; in [3], 570 nM. The compound further returned a concentration for a half-maximal effect (EC50) in [4] of 42 nM.
`N#CN/C(=N\c1ccc2c(c1)N(c1nc(-c3ccc(OC(F)(F)F)cc3)cs1)CC2)Nc1ccc(CCNC[C@H](O)c2cccnc2)cc1`: the Activation in experiment [5] is 20%; in experiment [6], 27%; in [7], 11%. In addition, the 50% inhibitory concentration (IC50) was determined as 620 nM in [2] and 710 nM in [3].
Take `O=[N+]([O-])/C=C(\Nc1ccc(CCNC[C@H](O)c2cccnc2)cc1)Nc1ccc2ccccc2c1`: in experiment [1], the Activation worked out at 74%. Also, the half-inhibitory concentration (IC50) in experiment [2] was 820 nM; in experiment [3] it was 3400 nM. Further, the half-maximal effective concentration (EC50) in experiment [4] turned out to be 180 nM.
In the case of `CCCCCCCCc1csc(N2CCc3cc(S(=O)(=O)Nc4ccc(CCNC[C@H](O)c5cccnc5)cc4)ccc32)n1`, the IC50 in experiment [2] is 2500 nM; in experiment [3] it was 1300 nM. The EC50 in [4] turned out to be 0.93 nM.
For `O=[N+]([O-])/C=C(\Nc1ccc(CCNC[C@H](O)c2cccnc2)cc1)Nc1cccc(I)c1`, the Activation in experiment [1] was 97%. In addition, the IC50 in [2] turned out to be 1100 nM; in [3] it was 1200 nM. In experiment [4], this compound had an EC50 of 22 nM.
For `N#CN/C(=N\c1cccc2c1CCN2c1nc(-c2ccc(OC(F)(F)F)cc2)cs1)Nc1ccc(CCNC[C@H](O)c2cccnc2)cc1`, the Activation stood at 72% in experiment [1], 20% in experiment [5] and 6% in experiment [6]. Also, the half-inhibitory concentration (IC50) in [2] is 8400 nM; in [3], > 10000 nM. In experiment [4], the EC50 is 57 nM.
On to `CCCCCCCCc1csc(N2CCc3c(N/C(=N/c4ccc(CCNC[C@H](O)c5cccnc5)cc4)NC#N)cccc32)n1`, for which the figures for the Activation in experiment [1], in experiment [5] and in experiment [6] were 62%, 25% and 11%, respectively. Also, the IC50 in experiment [2] worked out at 1200 nM; in [3], 930 nM. In addition, the EC50 in experiment [4] was found to be 13 nM.
For the compound `N#CN=C(Nc1ccc2c(c1)CCN2c1nc(-c2ccc(OC(F)(F)F)cc2)cs1)Nc1ccc2cc(CCNC[C@H](O)c3cccnc3)ccc2c1`, the IC50 in experiment [2] was found to be 2300 nM; in [3], 7100 nM. The midpoint of the response in experiment [4], the EC50, lay at 19 nM.
`N#CN/C(=N\c1cccc(Oc2ccccc2)c1)Nc1ccc(CCNC[C@H](O)c2cccnc2)cc1` came in with an Activation in [1] of 70%. The IC50 in [2] came out at 240 nM; in experiment [3], 40 nM. The EC50 in experiment [4] stood at 26 nM.
In experiment [1], `N#CN/C(=N\c1cccc2ccccc12)Nc1ccc(CCNC[C@H](O)c2cccnc2)cc1` came in with an Activation of 64%.
Still for that read-out and setting: then `N#CN/C(=N\c1ccc2ccccc2c1)Nc1ccc(CCNC[C@H](O)c2cccnc2)cc1`, with 41%.
Consider `N#CN=C(Nc1ccc(CCNC[C@H](O)c2cccnc2)cc1)Nc1cccc(F)c1`, for which the IC50 in experiment [2] stood at 590 nM; in [3], 200 nM. Also, the EC50 in experiment [4] worked out at 100 nM.
As to `N#CN/C(=N\c1cccc(F)c1)Nc1ccc(CCNC[C@H](O)c2cccnc2)cc1`, in experiment [1], the Activation was determined as 69%.
For `N#CN/C(=N\c1ccc2c(c1)CCN2c1nc(-c2ccc(OC(F)(F)F)cc2)cs1)Nc1ccc2cc(CCNC[C@H](O)c3cccnc3)ccc2c1`, the values for the Activation in experiment [1], in [5] and in [6] were 62%, 11% and 2%, respectively.
Compound `O=[N+]([O-])/C=C(\Nc1ccc(CCNC[C@H](O)c2cccnc2)cc1)Nc1cccc(Oc2ccccc2)c1` registered an Activation in experiment [1] of 93%. The IC50 in experiment [2] came out at 830 nM; in experiment [3] it was 220 nM. The concentration giving a half-maximal response (EC50) in experiment [4] is 120 nM.
In the same order, the values of `CCCCCCCCc1csc(N2CCc3ccc(N/C(=N/c4ccc(CCNC[C@H](O)c5cccnc5)cc4)NC#N)cc32)n1` are 38%, 74 nM, 66 nM and 59 nM.
In the case of `CCCCCCCCc1csc(N2CCc3cc(N/C(S)=N/c4ccc(CCNC[C@H](O)c5cccnc5)cc4)ccc32)n1`, the figures for the IC50 in experiment [2] and in [3] were 110 nM and 260 nM, respectively. Further, the response in experiment [4] was half-maximal at 5.3 nM (EC50).
On to `N#CN/C(=N\c1ccc2c(c1)CCN2c1nc(-c2ccc(OC(F)(F)F)cc2)cs1)Nc1ccc(CCNC[C@H](O)c2cccnc2)cc1`, for which the Activation in experiment [1] came out at 82%; in experiment [8] it was 73%; in experiment [9], 51%.
Turning to `O=[N+]([O-])/C=C(\Nc1ccc(CCNC[C@H](O)c2cccnc2)cc1)Nc1cc(Cl)cc(Cl)c1`, in experiment [1], the Activation turned out to be 85%. Further, the IC50 in experiment [2] was found to be 3800 nM; in experiment [3], 5600 nM. The compound also yielded a concentration for a half-maximal effect (EC50) in experiment [4] of 35 nM.
For the compound `N#CN=C(Nc1ccc(CCNC[C@H](O)c2cccnc2)cc1)Nc1ccc2ccccc2c1`, the IC50 amounted to 740 nM in [2] and 50 nM in [3]. Further, it took 130 nM to reach a half-maximal effect in experiment [4] (EC50).
Take `CCCCCCCCc1csc(N2CCc3cc(NC(=NC#N)Nc4ccc(CCNC[C@H](O)c5cccnc5)cc4)ccc32)n1`: the concentration for half-maximal inhibition (IC50) worked out at 16 nM in experiment [2] and 50 nM in experiment [3]. In experiment [4], this compound registered an EC50 of 11 nM.
Turning to `N#CN/C(=N\c1ccc(CCNC[C@H](O)c2cccnc2)cc1)Nc1cccc(C(N)=O)c1`, the Activation in experiment [1] was 76%. Moreover, the IC50 in experiment [2] was 980 nM; in experiment [3] it was 400 nM. The compound further gave a concentration giving a half-maximal response (EC50) in experiment [4] of 150 nM.
Turning to `N#CN=C(Nc1ccc(CCNC[C@H](O)c2cccnc2)cc1)Nc1cccc(I)c1`, the IC50 in [2] was found to be 230 nM; in experiment [3], 67 nM. In experiment [4], this compound registered a half-maximal effective concentration (EC50) of 59 nM.
Consider `NC(=O)c1cccc(N/C(=C/[N+](=O)[O-])Nc2ccc(CCNC[C@H](O)c3cccnc3)cc2)c1`, for which the Activation in experiment [1] turned out to be 101%. Also, the results for the IC50 in [2] and in [3] were 790 nM and 1200 nM, respectively. The same compound returned a half-maximal effective concentration (EC50) in experiment [4] of 10 nM.
For `N#CN=C(Nc1ccc(CCNC[C@H](O)c2cccnc2)cc1)Nc1ccc2c(c1)CCN2c1nc(-c2ccc(OC(F)(F)F)cc2)cs1`, the concentration for half-maximal inhibition (IC50) in experiment [2] was found to be 65 nM; in [3], 180 nM. For the same compound, the concentration giving a half-maximal response (EC50) in experiment [4] came out at 13 nM; in experiment [10], 41 nM.
